This is an account of results in article PMC11500415, “Chemical inhibition of stomatal differentiation by perturbation of the master-regulatory bHLH heterodimer via an ACT-Like domain” (Nature Communications, 2024).

In one assay the target is T1, SCRM-FAMA heterodimer (Arabidopsis thaliana, UniProt Q56YJ8).
T1 construct: heterodimerization of SCRM with full-length SPCH, MUTE, or FAMA in the context of the plant cells; combinations of split YFP constructs fused to the full-length stomatal bHLH proteins; nYFP (N terminus of EYFP, 174 amino acids); cYFP (C terminus of EYFP, 64 amino acids); expressed in transfected cells; host or cells: Nicotiana benthamiana leaves (Agrobacterium infiltration)
T1 sequence (Q56YJ8 1-414): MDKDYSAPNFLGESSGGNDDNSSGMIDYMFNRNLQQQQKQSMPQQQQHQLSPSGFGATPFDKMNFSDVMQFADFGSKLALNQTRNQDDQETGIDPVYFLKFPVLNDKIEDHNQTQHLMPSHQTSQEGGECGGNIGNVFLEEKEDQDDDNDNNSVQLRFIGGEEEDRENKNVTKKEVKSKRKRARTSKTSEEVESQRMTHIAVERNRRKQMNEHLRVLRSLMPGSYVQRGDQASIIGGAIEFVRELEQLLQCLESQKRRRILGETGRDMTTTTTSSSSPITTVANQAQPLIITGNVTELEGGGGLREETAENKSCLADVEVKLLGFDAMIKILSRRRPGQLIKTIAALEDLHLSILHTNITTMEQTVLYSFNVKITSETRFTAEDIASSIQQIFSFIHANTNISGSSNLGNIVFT
The experiment in a line: Ratiometric BiFC in N. benthamiana leaves. The format is cell-based. The settings on record: BiFC FAMA+SCRM, STOMI-treated, individual measurements. An excerpt: (§1) For ratiometric BiFC assays, the cDNAs of SPCH, MUTE, and FAMA were cloned into the 35S CaMV promoter-driven destination vector pSPYNE, which contains the N terminus of the EYFP protein (nYFP-174 amino acids), while the cDNA of SCRM and SCRM2 was inserted into pSPYCE, which contains the C terminus of the EYFP protein (cYFP-64 amino acids) (see Supplementary Table 5 for detailed information of the constructs). The constructs were then transformed into Agrobacterium tumefaciens strain GV3101. The Agrobacterium was resuspended in infiltration buffer (10 mM MgCl2, 10 mM 2-(N-morpholino)ethanesulfonic acid [pH 5.6], and 150 µM acetosyringone). Bacterial culture densities were adjusted to a final optical density (OD600) of 1.0, and the cell suspensions were incubated at room temperature for 4 hours prior to infiltration. Equal volumes of cultures carrying the corresponding complementary pair of BiFC constructs (YFPn and YFPc), along with CaMV35S::Histone H2B-mScarlet-I3 and the silencing suppressor plasmid p19 (a gift from Dr. Sir David Baulcombe) were mixed and then co-infiltrated into 4-week-old N. benthamiana leaves. The infiltrated N. benthamiana leaves were incubated at 25 °C for 2 days. Subsequently, leaf discs were cut out and cultured in mock or in liquid 1/2 MS media in mock (DMSO) or 100 µM Stomidazolone for 1 day. Confocal imaging of N. benthamiana leaves was performed using a Leica SP8 confocal microscope using a 20X objective lens (Leica Microsystems), simultaneously capturing YFP (excitation at 518 nm and emission at 530 nm) and mScarlet-I3 (excitation at 569 nm and emission at 600 nm) differential interference contrast channels.

The target in a further assay is T2, SCRM-MUTE heterodimer (Arabidopsis thaliana, UniProt Q9M8K6).
T2 construct: expressed in transfected cells; host or cells: yeast strain AH109
T2 sequence (Q9M8K6 1-202): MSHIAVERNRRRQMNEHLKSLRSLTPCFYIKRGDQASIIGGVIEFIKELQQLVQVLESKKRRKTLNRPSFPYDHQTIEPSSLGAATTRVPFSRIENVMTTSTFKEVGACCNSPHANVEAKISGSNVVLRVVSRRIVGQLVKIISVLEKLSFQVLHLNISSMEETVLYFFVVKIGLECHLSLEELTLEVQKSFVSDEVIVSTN
Briefly: Ratiometric BiFC in N. benthamiana leaves. The format is cell-based. The settings on record: BiFC MUTE+SCRM, STOMI-treated, individual measurements.
Excerpt: as §1

The target of a further assay is T3, SCRM2-FAMA heterodimer (Arabidopsis thaliana, UniProt Q56YJ8).
T3 construct: heterodimerization of SCRM with full-length SPCH, MUTE, or FAMA in the context of the plant cells; we performed rBiFC assays using full-length SCRM2; nYFP (N terminus of EYFP, 174 amino acids); cYFP (C terminus of EYFP, 64 amino acids); expressed in transfected cells; host or cells: Nicotiana benthamiana leaves (Agrobacterium infiltration)
Briefly: Ratiometric BiFC in N. benthamiana leaves. The format is cell-based. The conditions noted are these: FAMA-SCRM2 pair, STOMI-treated, rescaled, average of 20; DMSO 0.813227.
Excerpt: as §1

A further assay deals with T4, SCRM2-MUTE heterodimer (Arabidopsis thaliana, UniProt Q9M8K6).
T4 construct: heterodimerization of SCRM with full-length SPCH, MUTE, or FAMA in the context of the plant cells; nYFP (N terminus of EYFP, 174 amino acids); expressed in transfected cells; host or cells: Nicotiana benthamiana leaves (Agrobacterium infiltration)
The experiment in a line: Ratiometric BiFC in N. benthamiana leaves. The settings on record: MUTE-SCRM2 pair, STOMI-treated, rescaled, average of 20; DMSO 0.692877. The format is cell-based.
Excerpt: as §1

The next assay concerns the target T5, SCRM2-SPCH heterodimer (Arabidopsis thaliana, UniProt Q700C7).
T5 construct: heterodimerization of SCRM with full-length SPCH, MUTE, or FAMA in the context of the plant cells; we performed rBiFC assays using full-length SCRM2; nYFP (N terminus of EYFP, 174 amino acids); cYFP (C terminus of EYFP, 64 amino acids); expressed in transfected cells; host or cells: Nicotiana benthamiana leaves (Agrobacterium infiltration)
The experiment in a line: Ratiometric BiFC in N. benthamiana leaves. The format is cell-based. The settings on record: SPCH-SCRM2 pair, STOMI-treated, rescaled, average of 20; DMSO 0.870846.
Excerpt: as §1

The target in the next assay is T6, SCRM-SPCH heterodimer (Arabidopsis thaliana, UniProt Q700C7).
T6 construct: heterodimerization of SCRM with full-length SPCH, MUTE, or FAMA in the context of the plant cells; combinations of split YFP constructs fused to the full-length stomatal bHLH proteins; nYFP (N terminus of EYFP, 174 amino acids); cYFP (C terminus of EYFP, 64 amino acids); expressed in transfected cells; host or cells: Nicotiana benthamiana leaves (Agrobacterium infiltration)
T6 sequence (Q700C7 1-364): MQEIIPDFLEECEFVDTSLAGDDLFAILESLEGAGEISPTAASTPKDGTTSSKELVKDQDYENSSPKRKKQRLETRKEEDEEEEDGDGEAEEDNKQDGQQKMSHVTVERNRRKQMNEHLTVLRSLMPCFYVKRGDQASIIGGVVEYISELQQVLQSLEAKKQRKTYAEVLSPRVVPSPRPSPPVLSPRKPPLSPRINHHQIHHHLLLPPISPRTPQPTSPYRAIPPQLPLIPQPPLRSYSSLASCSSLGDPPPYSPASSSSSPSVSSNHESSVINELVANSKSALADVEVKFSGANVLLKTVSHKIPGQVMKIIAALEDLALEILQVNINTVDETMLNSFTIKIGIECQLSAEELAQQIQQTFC
The format is cell-based. The settings on record: STOMI-treated.
Excerpt: as §1

The target of another assay is T7, empty+SCRM (control) (Arabidopsis thaliana, UniProt Q9LSE2).
T7 construct: split YFP constructs fused to the full-length stomatal bHLH proteins; expressed in transfected cells; host or cells: Nicotiana benthamiana leaves (Agrobacterium infiltration)
T7 sequence (Q9LSE2 1-494): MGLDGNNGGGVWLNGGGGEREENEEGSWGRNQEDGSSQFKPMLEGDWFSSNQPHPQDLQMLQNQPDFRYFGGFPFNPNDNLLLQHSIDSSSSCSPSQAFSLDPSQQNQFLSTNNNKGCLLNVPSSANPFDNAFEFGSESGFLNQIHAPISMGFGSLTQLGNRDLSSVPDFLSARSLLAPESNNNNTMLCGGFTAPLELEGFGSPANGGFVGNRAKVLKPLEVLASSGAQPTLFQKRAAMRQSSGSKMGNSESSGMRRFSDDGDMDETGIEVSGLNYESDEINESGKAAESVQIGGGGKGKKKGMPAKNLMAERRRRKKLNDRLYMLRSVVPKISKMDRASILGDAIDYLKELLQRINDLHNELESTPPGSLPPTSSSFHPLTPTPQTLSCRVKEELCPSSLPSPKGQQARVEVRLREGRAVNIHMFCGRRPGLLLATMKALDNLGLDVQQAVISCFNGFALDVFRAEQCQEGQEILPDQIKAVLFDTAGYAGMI
Briefly: Ratiometric BiFC, control empty+SCRM. The format is cell-based. The settings on record: STOMI-treated, individual measurements.

For a further assay, the system named is stomatal movement. More on the design: method as in PMID 35042960. The conditions noted are these: previous chemical screens and SAR studies; cited from earlier work.
The mark [1] stands for this setting: BiFC SPCH+SCRM, individual measurements.

Where “and” joins values, the source holds several entries; their conditions need not be identical. Equal values may be shown once.

As for `O=C1C(c2ccccc2)=NC(NS(=O)(=O)c2ccccc2)(c2ccccc2)N1S(=O)(=O)c1ccccc1` (racemic) [STOMI], the YFP is 186.917 and 54.749 and 197.322 and 78.346 and 117.223 and 50.688 on SCRM-FAMA heterodimer; 1.16E+01 and 3.104 and 3.249 and 11.738 and 9.681 and 6.858 at SCRM-MUTE heterodimer; 42.813 and 234.339 and 61.532 and 61.417 and 224.742 and 142.963 at SCRM-SPCH heterodimer (setting [1]); 0.095 and 0.409 and 0 and 0.026 and 5.60E-04 and 0.042 on empty+SCRM (control). Moreover, the YFP/mScarlet on SCRM-FAMA heterodimer was 0.9773 and 1.064 and 0.9455 and 1.191 and 0.9038 and 0.8169; at SCRM-MUTE heterodimer, 0.2554 and 0.01703 and 0.0181 and 0.2123 and 0.2385 and 0.1574; at empty+SCRM (control), 0.0009064 and 0.01087 and 0 and 0.0008066 and 3.5039e-6 and 0.000976. The mScarlet is 191.252 and 51.452 and 208.697 and 65.781 and 129.694 and 62.052 on SCRM-FAMA heterodimer; 45.576 and 182.295 and 179.515 and 55.282 and 40.598 and 43.561 at SCRM-MUTE heterodimer; 36.031 and 235.498 and 75.919 and 70.723 and 231.024 and 153.918 at SCRM-SPCH heterodimer (setting [1]); 104.805 and 37.637 and 55.755 and 32.234 and 159.765 and 43.034 at empty+SCRM (control). Also, the “BiFC YFP/mScarlet signal intensity ratio, average” value was found to be 0.1443 on SCRM2-FAMA heterodimer; 0.1063 on SCRM2-MUTE heterodimer; 0.1468 on SCRM2-SPCH heterodimer; 0.9445 at SCRM-SPCH heterodimer (SPCH-SCRM pair, rescaled, average of 20, DMSO 0.999748).

In the case of `O=S(=O)(c1ccccc1)N(c1oc(-c2ccccc2)nc1-c1ccccc1)S(=O)(=O)c1ccccc1` [SIM1], the “effect on stomatal movement (in words)” value in the assay with stomatal movement is recorded as “inhibit stomatal movement”.
